Reference: PMC11489056, “Molecular mechanism of a triazole-containing inhibitor of Mycobacterium tuberculosis DNA gyrase” (iScience, 2024)
Converted amounts (≈) assume the structure as drawn. Like-named read-outs stand apart in the source and are kept apart here.

What was measured:
[1] = physchem; type: physicochemical; settings: pH 7.4, aqueous buffer, kinetic from dmso stock
Experimental: 10μL of a 10 mM solution in DMSO of the compound are diluted in 490 μL of PBS pH 7.4 in Matrix tube (in triplicate) or organic solvent (ACN, MeOH) in Matrix tube (in triplicate). The tubes are gently shaken 24h at room temperature. Then the tubes are centrifuged for 5 minutes at 4000 rpm and filtered over 0.45 μm filters (Millex-LH Millipore). 20 μL of each tube are diluted in 180 μL of MeOH. Analysis is performed thanks to a UPLC-MS/MS system (Waters) under SIM detection using the parameters optimized for each compound. HPLC analysis was performed using an Aquity C18 (50x2.1 mm, 1.8 μm); the gradient and the mobile phase (flow rate 600 μL/min^-1) used are determined in order to detect the compound of interest with satisfying retention time and peak shape. Acquisition and analysis of data were performed with Masslynx software. The solubility is determined by the ratio of mass signal area PBS/ organic solvent.

[2] = physchem; type: physicochemical; settings: pH 7.4
Experimental: 40 μL of a 10 mM solution in DMSO of the compound were diluted in 1.960 mL of a 1/1 octanol/PBS at pH 7.4 solution. The mixture was gently shaken 2h at room temperature. 20 μL of each solution was diluted in 480 μμL of MeOH and analyzed by LC-MS. Each compound is tested in triplicate. Analysis is performed thanks to a UPLC-MS/MS triple-quadrupole system (Waters) under SIM or MRM detection using the parameters optimized for each compound. HPLC analysis was performed using an Aquity C18 (50x2.1 mm, 1.8 μm); the gradient and the mobile phase (flow rate 600μL/min^-1) used are determined in order to detect the compound of interest with satisfying retention time and peak shape. Acquisition and analysis of data were performed with MS Workstation™ software (version 6.3.0 or higher). LogD was determined as the logarithm of the ratio of concentrations of product in octanol and PBS, determined by mass signals.

[3] = system: E. coli; test: MIC, agar dilution method, ESKAPE strains; type: cell-based, Escherichia coli
[4] = system: S. aureus; test: MIC, agar dilution method, ESKAPE strains; type: cell-based; settings: Staphylococcus aureus
[5] = system: E. faecium; test: MIC, agar dilution method, ESKAPE strains; type: cell-based; settings: Enterococcus faecium; read-out: MIC E. faecium MDR(5)
[6] = target: wild-type E. coli DNA gyrase (Escherichia coli, UniProt P0AES4+P0AES6); test: biochemical; settings: read-out: IC50 E. coli WT
[7] = system: Mtb; settings: Figure 1F; cited from earlier work
[8] = system: Mycobacterium tuberculosis H37Rv WT; test: microbe, parasite or virus in culture; type: cell-based
[9] = system: Corynebacterium glutamicum (Cglu) WT; test: MIC on Cglu WT; type: cell-based
[10] = target: T1, Mtb GyrBA fusion protein (Mycobacterium tuberculosis, UniProt P9WG45+P9WG47); test: DNA cleavage assay on pBR322; type: biochemical; settings: pBR322 5 nM, Mtb gyrase 200 nM, 5 μM inhibitor
T1 construct: His6 (TEV-cleavable) (N, cleaved yes); made in house; host or cells: E. coli Bli5 (DE3)

[11] = system: wild-type C. glutamicum ATCC1332 strain; test: Bacterial cell morphology (cell length) by microscopy; type: cell-based, Corynebacterium glutamicum; settings: 10x MIC, 24h, vs DMSO control
[12] = system: A. baumannii; test: MIC, agar dilution method, ESKAPE strains; type: cell-based; settings: Acinetobacter baumannii
[13] = target: T2, wild-type Mtb gyrase (Mycobacterium tuberculosis, UniProt P9WG45+P9WG47); type: biochemical
T2 construct: His tag (TEV-cleavable) (N, cleaved yes); made in house; host or cells: E. coli Bli5 (DE3)

[14] = target: Mtb gyrase; settings: Figure 1E, GlaxoSmithKline MGIs; cited from earlier work
[15] = system: K. pneumoniae; test: MIC, agar dilution method, ESKAPE strains; type: cell-based; settings: Klebsiella pneumoniae
[16] = target: T1, Mtb GyrBA fusion protein; test: DNA cleavage competition with ciprofloxacin; type: biochemical
[17] = target: T1, Mtb GyrBA fusion protein; test: Cleavage complex persistence (DNA cleavage-religation assay); type: biochemical
[18] = Escherichia coli, E. coli 10385 NDM-1, read-out: MIC E. coli MDR(2)
[19] = Escherichia coli, read-out: MIC E. coli WT(1)
[20] = read-out: MIC A. baumannii MDR(6)
[21] = Escherichia coli, 2 h, read-out: MIC E. coli WT
[22] = Escherichia coli, ATCC25922, read-out: MIC
[23] = Escherichia coli, E. coli 9003, BLSE, read-out: MIC
[24] = A. baumannii 09010, VEB-1, read-out: MIC

COc1ccc2nccc(-n3cc(CCNCc4ccc5c(c4)OCCO5)nn3)c2n1 [BDM71404 (10b)]
solubility at 24 h [1]: 66.9 µg/mL (≈ 160 µM) | logD [2]: 1.53 | MIC [3, 18]: 0.25 µg/mL (≈ 0.597 µM) | MIC [3, 19]: 8 µg/mL (≈ 19.1 µM) | MIC ([4]; read-out: MIC S. aureus MDR(4)): 0.25 µg/mL (≈ 0.597 µM) | MIC ([4]; read-out: MIC S. aureus WT(3)): 0.25 µg/mL (≈ 0.597 µM) | MIC [5]: ≤ 0.06 µg/mL | IC50 [6]: 380 nM

COc1cnc2ccc(=O)n(CCN3CCC(Nc4cnc(CO)c(Cl)c4)CC3)c2c1 [EC/11716]
MIC [7]: 0.17 µg/mL (≈ 0.383 µM)

O=c1ccc2ncc(=O)n3c2n1C[C@H]3CN1CCC(NCc2cc3c(cn2)OCCC3)CC1 [Gepotidacin, gepotidacin, reference compound]
MIC [8]: 4 µg/mL (≈ 8.92 µM) | MIC [9]: 0.2 µg/mL (≈ 0.446 µM) | minor population of linearized DNA [10]: 10–20% | Cohen's d, cell length compared to control [11]: 2.36 | effect size class, cell length compared to control [11]: ∗∗∗∗ (huge (∗∗∗∗), d > 2.0)

COc1ccc2nccc(-n3cc(CCNC(=O)c4ccc5c(c4)OCCO5)nn3)c2c1 [BDM71373 (11b)]
solubility at 24 h [1]: 10.2 µg/mL (≈ 23.6 µM) | logD [2]: 2.35 | MIC [3, 18]: 32 µg/mL (≈ 74.2 µM) | MIC [3, 19]: ≥ 32 µg/mL | MIC ([4]; read-out: MIC S. aureus MDR(4)): ≥ 32 µg/mL | MIC ([4]; read-out: MIC S. aureus WT(3)): ≥ 32 µg/mL | MIC [5]: ≥ 32 µg/mL | MIC [12, 20]: 32 µg/mL (≈ 74.2 µM)

O=C(O)c1cn(C2CC2)c2cc(N3CCNCC3)c(F)cc2c1=O [Ciprofloxacin, ciprofloxacin, reference compound]
MIC [3, 21]: ≤ 0.06 µg/mL | MIC [3, 22]: < 0.06 µg/mL | MIC [3, 23]: 16 µg/mL (≈ 48.3 µM) | MIC [3, 19]: ≤ 0.06 µg/mL | MIC ([4]; read-out: MIC S. aureus MDR(4)): ≥ 128 µg/mL | MIC [5]: ≥ 128 µg/mL | MIC [12, 24]: > 32 µg/mL | MIC [8]: 1 µg/mL (≈ 3.02 µM) | MIC [9]: 0.25 µg/mL (≈ 0.754 µM) | Cohen's d, cell length compared to control [11]: 2.08

COc1ccc2nccc(-n3cc(CCNCc4ccc5c(c4)OCCO5)nn3)c2c1 [BDM71369 (9b)]
solubility at 24 h [1]: > 83.5 µg/mL | logD [2]: 1.21 | MIC [3, 18]: 1 µg/mL (≈ 2.4 µM) | MIC [3, 19]: 32 µg/mL (≈ 76.7 µM) | MIC ([4]; read-out: MIC S. aureus MDR(4)): 1 µg/mL (≈ 2.4 µM) | MIC ([4]; read-out: MIC S. aureus WT(3)): 1 µg/mL (≈ 2.4 µM) | MIC [5]: 0.25 µg/mL (≈ 0.599 µM) | MIC [12, 20]: 32 µg/mL (≈ 76.7 µM) | IC50 [6]: 130 nM

COc1ccc2nccc(-n3cc(CCNCc4ccc5c(c4)NC(=O)CS5)nn3)c2c1 [BDM71368 (9a)]
solubility at 24 h [1]: 84.7 µg/mL (≈ 190 µM) | logD [2]: 1.81 | MIC [3, 21]: 1 µg/mL (≈ 2.24 µM) | MIC [3, 18]: ≤ 0.06 µg/mL | MIC [3, 19]: 1 µg/mL (≈ 2.24 µM) | MIC ([4]; read-out: MIC S. aureus MDR(4)): 1 µg/mL (≈ 2.24 µM) | MIC ([4]; read-out: MIC S. aureus WT(3)): 1 µg/mL (≈ 2.24 µM) | MIC [5]: 0.5 µg/mL (≈ 1.12 µM) | MIC [12, 20]: 1 µg/mL (≈ 2.24 µM) | IC50 [6]: 1170 nM | IC50 lower than ciprofloxacin [13]: 10 fold | IC50 lower than gepotidacin [13]: 6 fold | MIC [8]: 1 µg/mL (≈ 2.24 µM) | MIC [9]: 0.5 µg/mL (≈ 1.12 µM)

COc1ccc2nccc(-n3cc(CCNCc4ccc5c(c4)NC(=O)CO5)nn3)c2c1 [BDM71346 (9c)]
solubility at 24 h [1]: 76.9 µg/mL (≈ 179 µM) | logD [2]: 1.32 | MIC [3, 18]: 0.5 µg/mL (≈ 1.16 µM) | MIC [3, 19]: 8 µg/mL (≈ 18.6 µM) | MIC ([4]; read-out: MIC S. aureus MDR(4)): 32 µg/mL (≈ 74.3 µM) | MIC ([4]; read-out: MIC S. aureus WT(3)): 16 µg/mL (≈ 37.2 µM) | MIC [5]: 1 µg/mL (≈ 2.32 µM) | MIC [12, 20]: 4 µg/mL (≈ 9.29 µM) | IC50 [6]: 780 nM

COc1ccc2nccc(-n3cc(CCNC(=O)c4ccc5c(c4)NC(=O)CS5)nn3)c2c1 [BDM71367 (11a)]
solubility at 24 h [1]: < 0.17 µg/mL | logD [2]: > 2.65 | MIC [3, 18]: 0.25 µg/mL (≈ 0.543 µM) | MIC [3, 19]: 8 µg/mL (≈ 17.4 µM) | MIC ([4]; read-out: MIC S. aureus MDR(4)): 4 µg/mL (≈ 8.69 µM) | MIC ([4]; read-out: MIC S. aureus WT(3)): 4 µg/mL (≈ 8.69 µM) | MIC [5]: 8 µg/mL (≈ 17.4 µM) | MIC [12, 20]: 4 µg/mL (≈ 8.69 µM)

COc1cnc2ccc(=O)n(CCN3CCC(Nc4ccc(Cl)c(Cl)c4)CC3)c2c1 [GSK000]
IC50 [14]: 5400 nM

COc1ccc2nccc(-n3cc(CCNCc4ccc5c(c4)NC(=O)CS5)nn3)c2n1 [BDM71403 (10a)]
solubility at 24 h [1]: 44 µg/mL (≈ 98.3 µM) | logD [2]: 1.92 | MIC [3]: 0.5 µg/mL (≈ 1.12 µM) | MIC [3, 21]: 1 µg/mL (≈ 2.23 µM) | MIC [3, 22]: 1 µg/mL (≈ 2.23 µM) | MIC [3, 23]: 1 µg/mL (≈ 2.23 µM) | MIC ([3]; Escherichia coli, E. coli 10269, NDM-1, read-out: MIC): 1 µg/mL (≈ 2.23 µM) | MIC ([3]; Escherichia coli, E. coli 10273, KPC-2, read-out: MIC): 1 µg/mL (≈ 2.23 µM) | MIC ([3]; Escherichia coli, E. coli 10385, NDM-1, read-out: MIC): < 0.06 µg/mL | MIC [3, 18]: ≤ 0.06 µg/mL | MIC ([3]; Escherichia coli, E. coli 10386, NDM-1, read-out: MIC): 1 µg/mL (≈ 2.23 µM) | MIC ([3]; Escherichia coli, read-out: MIC): 1 µg/mL (≈ 2.23 µM) | MIC [3, 19]: 1 µg/mL (≈ 2.23 µM) | MIC ([4]; read-out: MIC S. aureus MDR(4)): 0.25 µg/mL (≈ 0.559 µM) | MIC ([4]; read-out: MIC S. aureus WT(3)): 0.25 µg/mL (≈ 0.559 µM) | MIC [5]: ≤ 0.06 µg/mL | MIC [12, 24]: 1 µg/mL (≈ 2.23 µM) | MIC ([12]; A. baumannii 10275, VIM-4, read-out: MIC): < 0.06 µg/mL | MIC ([15]; K. pneumoniae 10270, VIM): 4 µg/mL (≈ 8.94 µM) | MIC ([15]; K. pneumoniae 10272, 0XA-48): 2 µg/mL (≈ 4.47 µM) | MIC ([15]; K. pneumoniae 10277, KPC-2): 2 µg/mL (≈ 4.47 µM) | IC50 [6]: 80 nM | IC50 lower than ciprofloxacin [13]: 12 fold | IC50 lower than gepotidacin [13]: 7 fold | MIC [8]: 0.5 µg/mL (≈ 1.12 µM) | MIC [9]: 0.12 µg/mL (≈ 0.268 µM) | minor population of linearized DNA [10]: 10–20% | concentration at which nicked DNA is diminished by 50% [16]: 10 µM | lower concentration for drop of nicked DNA to 50% in comparison with gepotidacin [16]: 2.5 fold | difference in complex half-life versus gepotidacin [17]: 10 fold | Cohen's d, cell length compared to control [11]: 1.87 | effect size class, cell length compared to control [11]: ∗∗∗ (very large (∗∗∗), 1.20 < d < 2.0)
